Assay results as given in the supplement of paper PMC10883282.
± gives the standard deviation of the averaged measurements.

Test system: HS729
Experiment: relative viability vs DMSO control (72 h) (fraction); higher = more viable cells
How it was run: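 Densities for seeding sarcoma cell lines into 384-well plates were set to give 80–90% confluence. After 24 h, 2.5 µl of serially diluted compound from source plates of 10 mM to 0.0002 mM went in, and plates stayed 72 h at 37 °C in 5% CO2 with 0.1% DMSO vehicle and a 5 µM positive control. Percent growth from ATPLite readings, averaged over up to triplicate wells, served as relative viability, rescaled so 1 means full and 0 means none.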

Row | Structure (SMILES) | relative viability (0.00017 µM) | relative viability (0.00051 µM) | relative viability (0.00152 µM) | relative viability (0.00457 µM) | relative viability (0.01372 µM) | relative viability (0.04115 µM) | relative viability (0.1235 µM) | relative viability (0.3704 µM) | relative viability (1.111 µM) | relative viability (3.333 µM) | relative viability (10 µM)
1 | C[C@@H](c1ccc2nccn2c1)n1nnc2ncc(-c3cnn(C)c3)nc21 [Volitinib] | 0.947 ± 0.029 | 0.978 ± 0.013 | 0.978 ± 0.031 | 1.02 ± 0.043 | 0.938 ± 0.021 | 0.952 ± 0.066 | 0.955 ± 0.061 | 1 ± 0.053 | 1 ± 0.08 | 0.97 ± 0.034 | 1.03 ± 0.042
2 | CC(C)(C)c1cc(NC(=O)Nc2ccc(-c3cn4c(n3)sc3cc(OCCN5CCOCC5)ccc34)cc2)no1 [Quizartinib] | 1.03 ± 0.1 | 0.973 ± 0.047 | 1 ± 0.11 | 0.976 ± 0.12 | 1.01 ± 0.084 | 0.953 ± 0.062 | 1.01 ± 0.12 | 0.873 ± 0.069 | 0.894 ± 0.12 | 0.873 ± 0.061 | 0.929 ± 0.061
3 | CC(C)N1CCN(Cc2cnc(-c3cc(-c4cccc5[nH]ccc45)cc4[nH]ncc34)o2)CC1 [Nemiralisib] | 1.06 ± 0.022 | 0.984 ± 0.026 | 0.98 ± 0.067 | 0.938 ± 0.038 | 0.978 ± 0.059 | 0.97 ± 0.067 | 0.892 ± 0.012 | 0.909 ± 0.063 | 0.787 ± 0.029 | 0.653 ± 0.037 | 0.52 ± 0.029
4 | C=CC(=O)N1CCC[C@@H](n2nc(-c3ccc(Oc4ccccc4)cc3)c3c(N)ncnc32)C1 [Ibrutinib] | 1.04 ± 0.018 | 1.01 ± 0.051 | 0.942 ± 0.027 | 0.9505 ± 0.0054 | 0.972 ± 0.088 | 0.927 ± 0.063 | 0.907 ± 0.014 | 0.926 ± 0.03 | 0.94 ± 0.05 | 0.907 ± 0.068 | 0.762 ± 0.03
5 | CN1CCC(COc2cnc(-c3cccc(Cn4nc(-c5cccc(C#N)c5)ccc4=O)c3)nc2)CC1 [Tepotinib] | 1.04 ± 0.054 | 1 ± 0.048 | 0.988 ± 0.034 | 0.983 ± 0.041 | 0.941 ± 0.057 | 0.928 ± 0.055 | 0.987 ± 0.027 | 0.894 ± 0.02 | 0.926 ± 0.038 | 0.831 ± 0.029 | 0.829 ± 0.035
6 | C[C@@H]1CCN(C(=O)CC#N)C[C@@H]1N(C)c1ncnc2[nH]ccc12 [Tofacitinib] | 1.03 ± 0.017 | 0.957 ± 0.029 | 0.936 ± 0.031 | 0.927 ± 0.036 | 0.889 ± 0.036 | 0.835 ± 0.065 | 0.802 ± 0.029 | 0.828 ± 0.013 | 0.861 ± 0.03 | 0.846 ± 0.02 | 0.75 ± 0.059
7 | Cc1cc(Nc2ncnc3ccc(NC4=NC(C)(C)CO4)cc23)ccc1Oc1ccn2ncnc2c1 [Tucatinib] | 1.05 ± 0.04 | 1.05 ± 0.028 | 1.06 ± 0.029 | 0.987 ± 0.06 | 0.974 ± 0.032 | 0.965 ± 0.061 | 0.967 ± 0.015 | 0.963 ± 0.032 | 0.957 ± 0.034 | 0.924 ± 0.071 | 0.909 ± 0.056
8 | O=C(Nc1cnn2ccc(N3CCC[C@@H]3c3cc(F)ccc3F)nc12)N1CC[C@H](O)C1 [Larotrectinib] | 1.07 ± 0.041 | 0.958 ± 0.062 | 0.895 ± 0.033 | 0.874 ± 0.029 | 0.939 ± 0.019 | 0.887 ± 0.074 | 0.936 ± 0.021 | 0.905 ± 0.095 | 0.85 ± 0.013 | 0.84 ± 0.094 | 0.849 ± 0.02
9 | C=CC(=O)N1CCC([C@@H]2CCNc3c(C(N)=O)c(-c4ccc(Oc5ccccc5)cc4)nn32)CC1 [Zanubrutinib] | 1.06 ± 0.046 | 1.07 ± 0.06 | 1.05 ± 0.061 | 1.05 ± 0.072 | 1.06 ± 0.082 | 1.04 ± 0.099 | 1.06 ± 0.062 | 1.03 ± 0.095 | 0.961 ± 0.094 | 1.02 ± 0.074 | 0.873 ± 0.077
10 | CO[C@H]1C[C@@H]2CC[C@@H](C)[C@@](O)(O2)C(=O)C(=O)N2CCCC[C@H]2C(=O)O[C@H]([C@H](C)C[C@@H]2CC[C@@H](OP(C)(C)=O)[C@H](OC)C2)CC(=O)[C@H](C)/C=C(\C)[C@@H](O)[C@@H](OC)C(=O)[C@H](C)C[C@H](C)/C=C/C=C/C=C/1C [Ridaforolimus] | 0.962 ± 0.012 | 1 ± 0.045 | 0.977 ± 0.048 | 0.907 ± 0.1 | 0.923 ± 0.054 | 0.944 ± 0.0096 | 0.916 ± 0.12 | 0.924 ± 0.096 | 0.86 ± 0.14 | 0.786 ± 0.065 | 0.763 ± 0.052
